{
  "source": "the NIST ThermoML archive (doi:10.1021/je049582g)",
  "test": "cn = amount concentration of the nth substance listed, in mol/dm3",
  "details": "298 K, 101 kPa, Liquid, holographic interferometric technique",
  "data": [
    {"smiles": "NCCC(=O)O", "note": "[3-aminopropanoic acid] + O", "values": [
      {"measurement": "binary diffusion coefficient", "setting": "c1 = 0.0281", "result": "9.36e-10", "unit": "m2/s"},
      {"measurement": "binary diffusion coefficient", "setting": "c1 = 0.0288", "result": "9.35e-10", "unit": "m2/s"},
      {"measurement": "binary diffusion coefficient", "setting": "c1 = 0.0299", "result": "9.34e-10", "unit": "m2/s"},
      {"measurement": "binary diffusion coefficient", "setting": "c1 = 0.0344", "result": "9.33e-10", "unit": "m2/s"},
      {"measurement": "binary diffusion coefficient", "setting": "c1 = 0.111", "result": "9.18e-10", "unit": "m2/s"},
      {"measurement": "binary diffusion coefficient", "setting": "c1 = 0.5605", "result": "8.67e-10", "unit": "m2/s"},
      {"measurement": "binary diffusion coefficient", "setting": "c1 = 0.5886", "result": "8.68e-10", "unit": "m2/s"},
      {"measurement": "binary diffusion coefficient", "setting": "c1 = 1.123", "result": "8.18e-10", "unit": "m2/s"},
      {"measurement": "binary diffusion coefficient", "setting": "c1 = 1.766", "result": "7.79e-10", "unit": "m2/s"},
      {"measurement": "binary diffusion coefficient", "setting": "c1 = 2.34", "result": "7.52e-10", "unit": "m2/s"},
      {"measurement": "binary diffusion coefficient", "setting": "c1 = 2.665", "result": "7.4e-10", "unit": "m2/s"},
      {"measurement": "binary diffusion coefficient", "setting": "c1 = 3.008", "result": "7.2e-10", "unit": "m2/s"},
      {"measurement": "binary diffusion coefficient", "setting": "c1 = 3.931", "result": "6.63e-10", "unit": "m2/s"},
      {"measurement": "binary diffusion coefficient", "setting": "c1 = 4.543", "result": "6.25e-10", "unit": "m2/s"},
      {"measurement": "binary diffusion coefficient", "setting": "c1 = 5.419", "result": "5.6e-10", "unit": "m2/s"}
    ]},
    {"smiles": "OC[C@H]1O[C@@](CO)(O[C@H]2O[C@H](CO)[C@@H](O)[C@H](O)[C@H]2O)[C@@H](O)[C@@H]1O", "note": "[D-sucrose] + O", "values": [
      {"measurement": "binary diffusion coefficient", "setting": "c1 = 0.1", "result": "4.89e-10", "unit": "m2/s"},
      {"measurement": "binary diffusion coefficient", "setting": "c1 = 0.3", "result": "4.27e-10", "unit": "m2/s"},
      {"measurement": "binary diffusion coefficient", "setting": "c1 = 0.5", "result": "3.67e-10", "unit": "m2/s"},
      {"measurement": "binary diffusion coefficient", "setting": "c1 = 0.7", "result": "3.06e-10", "unit": "m2/s"}
    ]},
    {"smiles": "C[C@@H](O)[C@H](N)C(=O)O", "note": "[L-threonine] + O", "values": [
      {"measurement": "binary diffusion coefficient", "setting": "c1 = 0.1006", "result": "7.86e-10", "unit": "m2/s"},
      {"measurement": "binary diffusion coefficient", "setting": "c1 = 0.2002", "result": "7.58e-10", "unit": "m2/s"},
      {"measurement": "binary diffusion coefficient", "setting": "c1 = 0.2994", "result": "7.42e-10", "unit": "m2/s"},
      {"measurement": "binary diffusion coefficient", "setting": "c1 = 0.4002", "result": "7.25e-10", "unit": "m2/s"},
      {"measurement": "binary diffusion coefficient", "setting": "c1 = 0.5003", "result": "7.15e-10", "unit": "m2/s"}
    ]},
    {"smiles": "C[C@H](N)C(=O)O", "note": "[(S)-2-aminopropanoic acid] + O", "values": [
      {"measurement": "binary diffusion coefficient", "setting": "c1 = 0.0997", "result": "9.04e-10", "unit": "m2/s"},
      {"measurement": "binary diffusion coefficient", "setting": "c1 = 0.2996", "result": "8.59e-10", "unit": "m2/s"},
      {"measurement": "binary diffusion coefficient", "setting": "c1 = 0.4996", "result": "8.34e-10", "unit": "m2/s"},
      {"measurement": "binary diffusion coefficient", "setting": "c1 = 0.7002", "result": "8.12e-10", "unit": "m2/s"},
      {"measurement": "binary diffusion coefficient", "setting": "c1 = 0.9006", "result": "7.92e-10", "unit": "m2/s"}
    ]},
    {"smiles": "CC(C)[C@H](N)C(=O)O", "note": "[L-valine] + O", "values": [
      {"measurement": "binary diffusion coefficient", "setting": "c1 = 0.1", "result": "7.12e-10", "unit": "m2/s"},
      {"measurement": "binary diffusion coefficient", "setting": "c1 = 0.2", "result": "6.79e-10", "unit": "m2/s"},
      {"measurement": "binary diffusion coefficient", "setting": "c1 = 0.2999", "result": "6.55e-10", "unit": "m2/s"},
      {"measurement": "binary diffusion coefficient", "setting": "c1 = 0.4", "result": "6.45e-10", "unit": "m2/s"},
      {"measurement": "binary diffusion coefficient", "setting": "c1 = 0.5001", "result": "6.33e-10", "unit": "m2/s"}
    ]},
    {"smiles": "[Cl-].[K+]", "note": "[potassium chloride] + O", "values": [
      {"measurement": "binary diffusion coefficient", "setting": "c1 = 0.33", "result": "1.83e-10", "unit": "m2/s"}
    ]},
    {"smiles": "CC[C@H](C)[C@H](N)C(=O)O", "note": "[2-amino-3-methylpentanoic acid] + O", "values": [
      {"measurement": "binary diffusion coefficient", "setting": "c1 = 0.0101", "result": "7.61e-10", "unit": "m2/s"},
      {"measurement": "binary diffusion coefficient", "setting": "c1 = 0.0203", "result": "7.5e-10", "unit": "m2/s"},
      {"measurement": "binary diffusion coefficient", "setting": "c1 = 0.0301", "result": "7.39e-10", "unit": "m2/s"},
      {"measurement": "binary diffusion coefficient", "setting": "c1 = 0.0399", "result": "7.32e-10", "unit": "m2/s"},
      {"measurement": "binary diffusion coefficient", "setting": "c1 = 0.05", "result": "7.25e-10", "unit": "m2/s"}
    ]},
    {"smiles": "CC(N)C(=O)O", "note": "(stereo not drawn) [DL-2-aminopropanoic acid] + O", "values": [
      {"measurement": "binary diffusion coefficient", "setting": "c1 = 0.0271", "result": "9.11e-10", "unit": "m2/s"},
      {"measurement": "binary diffusion coefficient", "setting": "c1 = 0.0281", "result": "9.11e-10", "unit": "m2/s"},
      {"measurement": "binary diffusion coefficient", "setting": "c1 = 0.2233", "result": "8.84e-10", "unit": "m2/s"},
      {"measurement": "binary diffusion coefficient", "setting": "c1 = 0.4374", "result": "8.56e-10", "unit": "m2/s"},
      {"measurement": "binary diffusion coefficient", "setting": "c1 = 0.6786", "result": "8.27e-10", "unit": "m2/s"},
      {"measurement": "binary diffusion coefficient", "setting": "c1 = 0.9025", "result": "8.02e-10", "unit": "m2/s"},
      {"measurement": "binary diffusion coefficient", "setting": "c1 = 1.195", "result": "7.72e-10", "unit": "m2/s"},
      {"measurement": "binary diffusion coefficient", "setting": "c1 = 1.541", "result": "7.41e-10", "unit": "m2/s"}
    ]},
    {"smiles": "N=C(N)NCCC[C@H](N)C(=O)O", "note": "[L-arginine] + O", "values": [
      {"measurement": "binary diffusion coefficient", "setting": "c1 = 0.1002", "result": "7.01e-10", "unit": "m2/s"},
      {"measurement": "binary diffusion coefficient", "setting": "c1 = 0.2", "result": "6.61e-10", "unit": "m2/s"},
      {"measurement": "binary diffusion coefficient", "setting": "c1 = 0.2949", "result": "6.36e-10", "unit": "m2/s"},
      {"measurement": "binary diffusion coefficient", "setting": "c1 = 0.4001", "result": "6.21e-10", "unit": "m2/s"},
      {"measurement": "binary diffusion coefficient", "setting": "c1 = 0.5", "result": "6.04e-10", "unit": "m2/s"}
    ]},
    {"smiles": "N[C@@H](CO)C(=O)O", "note": "[L-serine] + O", "values": [
      {"measurement": "binary diffusion coefficient", "setting": "c1 = 0.01", "result": "9.16e-10", "unit": "m2/s"},
      {"measurement": "binary diffusion coefficient", "setting": "c1 = 0.0301", "result": "8.91e-10", "unit": "m2/s"},
      {"measurement": "binary diffusion coefficient", "setting": "c1 = 0.05", "result": "8.79e-10", "unit": "m2/s"},
      {"measurement": "binary diffusion coefficient", "setting": "c1 = 0.07", "result": "8.71e-10", "unit": "m2/s"},
      {"measurement": "binary diffusion coefficient", "setting": "c1 = 0.0902", "result": "8.65e-10", "unit": "m2/s"}
    ]},
    {"smiles": "NC(N)=O", "note": "[urea] + O", "values": [
      {"measurement": "binary diffusion coefficient", "setting": "c1 = 0.125", "result": "1.37e-09", "unit": "m2/s"},
      {"measurement": "binary diffusion coefficient", "setting": "c1 = 0.2475", "result": "1.36e-09", "unit": "m2/s"},
      {"measurement": "binary diffusion coefficient", "setting": "c1 = 0.5", "result": "1.34e-09", "unit": "m2/s"},
      {"measurement": "binary diffusion coefficient", "setting": "c1 = 0.75", "result": "1.33e-09", "unit": "m2/s"},
      {"measurement": "binary diffusion coefficient", "setting": "c1 = 0.9782", "result": "1.31e-09", "unit": "m2/s"},
      {"measurement": "binary diffusion coefficient", "setting": "c1 = 1", "result": "1.31e-09", "unit": "m2/s"},
      {"measurement": "binary diffusion coefficient", "setting": "c1 = 1.5", "result": "1.27e-09", "unit": "m2/s"},
      {"measurement": "binary diffusion coefficient", "setting": "c1 = 2", "result": "1.24e-09", "unit": "m2/s"},
      {"measurement": "binary diffusion coefficient", "setting": "c1 = 3", "result": "1.19e-09", "unit": "m2/s"},
      {"measurement": "binary diffusion coefficient", "setting": "c1 = 4", "result": "1.14e-09", "unit": "m2/s"}
    ]},
    {"smiles": "CC[C@@H](N)C(=O)O", "note": "[(R)-(-)-α-aminobutyric acid] + O", "values": [
      {"measurement": "binary diffusion coefficient", "setting": "c1 = 0.2", "result": "8e-10", "unit": "m2/s"},
      {"measurement": "binary diffusion coefficient", "setting": "c1 = 0.4", "result": "7.72e-10", "unit": "m2/s"},
      {"measurement": "binary diffusion coefficient", "setting": "c1 = 0.6", "result": "7.45e-10", "unit": "m2/s"},
      {"measurement": "binary diffusion coefficient", "setting": "c1 = 0.8", "result": "7.2e-10", "unit": "m2/s"},
      {"measurement": "binary diffusion coefficient", "setting": "c1 = 1", "result": "6.97e-10", "unit": "m2/s"}
    ]},
    {"smiles": "NCC(=O)O", "note": "[2-aminoacetic acid] + O", "values": [
      {"measurement": "binary diffusion coefficient", "setting": "c1 = 0.1057", "result": "1.04e-09", "unit": "m2/s"},
      {"measurement": "binary diffusion coefficient", "setting": "c1 = 0.3056", "result": "1e-09", "unit": "m2/s"},
      {"measurement": "binary diffusion coefficient", "setting": "c1 = 0.5045", "result": "9.73e-10", "unit": "m2/s"},
      {"measurement": "binary diffusion coefficient", "setting": "c1 = 0.7064", "result": "9.57e-10", "unit": "m2/s"},
      {"measurement": "binary diffusion coefficient", "setting": "c1 = 0.9045", "result": "9.43e-10", "unit": "m2/s"}
    ]}
  ]
}
